Measured values: US20260356819A1, “OXOISOINDOLINYL-SUBSTITUTED […] DERIVATIVE AND USE THEREOF” (GLUETACS THERAPEUTICS (SHANGHAI) CO., LTD., priority 2023, published 2026)

Columns and labels:
Type in all cases: cell-based
Details in all cases: compounds at 50 nM and 500 nM
[1] = target: T1, WEE1 (Homo sapiens, UniProt P30291+Q96SW2); test: Western blot degradation of WEE1 in hPBMCs (24 h)
T1 construct: The supernatant was aspirated as the extracted total cell protein; endogenous in cells; host or cells: human peripheral blood mononuclear cells (hPBMCs)
Procedure, shortened: (§1)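 Compounds were tested at 50 nM and 500 nM on hPBMCs (1×10^6 cells/mL) for 24 h, alongside DMSO. Proteins were detected by Western blot after denaturation at 95 °C; remaining protein computed from normalised band grayscale.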

[2] = target: T2, IKZF1 (Homo sapiens, UniProt Q13422+Q96SW2); test: Western blot degradation of IKZF1 in hPBMCs (24 h)
T2 construct: The supernatant was aspirated as the extracted total cell protein; endogenous in cells; host or cells: human peripheral blood mononuclear cells (hPBMCs)
Procedure, shortened: as §1

[3] = target: T3, IKZF2 (Homo sapiens, UniProt Q96SW2+Q9UKS7); test: Western blot degradation of IKZF2 in hPBMCs (24 h)
T3 construct: The supernatant was aspirated as the extracted total cell protein; endogenous in cells; host or cells: human peripheral blood mononuclear cells (hPBMCs)
Procedure, shortened: as §1

[4] = target: T4, IKZF3 (Homo sapiens, UniProt Q96SW2+Q9UKT9); test: Western blot degradation of IKZF3 in hPBMCs (24 h)
T4 construct: The supernatant was aspirated as the extracted total cell protein; endogenous in cells; host or cells: human peripheral blood mononuclear cells (hPBMCs)
Procedure, shortened: as §1

[5] = target: T5, CK1α (Homo sapiens, UniProt P48729+Q96SW2); test: Western blot degradation of CK1α in hPBMCs (24 h)
T5 construct: The supernatant was aspirated as the extracted total cell protein; endogenous in cells; host or cells: human peripheral blood mononuclear cells (hPBMCs)
Procedure, shortened: as §1

[6] = target: T6, GSPT1 (Homo sapiens, UniProt P15170+Q96SW2); test: Western blot degradation of GSPT1 in hPBMCs (24 h)
T6 construct: The supernatant was aspirated as the extracted total cell protein; endogenous in cells; host or cells: human peripheral blood mononuclear cells (hPBMCs)
Procedure, shortened: as §1

T4 sequence (Q9UKT9 whole entry): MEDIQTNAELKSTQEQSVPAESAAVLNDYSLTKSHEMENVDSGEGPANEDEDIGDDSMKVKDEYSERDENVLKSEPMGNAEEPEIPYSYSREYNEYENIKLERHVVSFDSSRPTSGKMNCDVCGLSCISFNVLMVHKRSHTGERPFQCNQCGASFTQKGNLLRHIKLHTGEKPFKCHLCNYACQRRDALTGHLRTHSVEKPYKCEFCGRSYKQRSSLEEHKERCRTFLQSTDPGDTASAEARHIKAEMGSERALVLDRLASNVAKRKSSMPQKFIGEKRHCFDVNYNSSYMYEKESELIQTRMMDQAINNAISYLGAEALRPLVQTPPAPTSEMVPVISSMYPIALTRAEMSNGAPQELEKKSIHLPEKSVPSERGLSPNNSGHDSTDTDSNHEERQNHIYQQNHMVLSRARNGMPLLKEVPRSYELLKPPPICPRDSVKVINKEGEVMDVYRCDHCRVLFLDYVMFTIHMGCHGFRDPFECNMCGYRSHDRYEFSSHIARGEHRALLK
T4 sequence (Q96SW2 whole entry): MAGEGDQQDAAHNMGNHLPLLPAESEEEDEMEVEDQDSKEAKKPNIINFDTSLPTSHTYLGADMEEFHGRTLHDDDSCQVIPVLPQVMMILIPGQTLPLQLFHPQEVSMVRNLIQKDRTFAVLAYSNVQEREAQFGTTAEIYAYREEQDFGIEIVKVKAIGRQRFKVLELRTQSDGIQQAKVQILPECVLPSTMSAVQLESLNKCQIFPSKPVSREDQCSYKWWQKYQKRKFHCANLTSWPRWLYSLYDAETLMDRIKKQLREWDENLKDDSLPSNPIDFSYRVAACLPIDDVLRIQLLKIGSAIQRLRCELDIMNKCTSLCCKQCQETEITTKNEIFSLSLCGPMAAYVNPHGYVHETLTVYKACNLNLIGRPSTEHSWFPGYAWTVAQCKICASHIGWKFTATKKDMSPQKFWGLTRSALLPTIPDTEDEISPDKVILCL
T4 sequence (Q16531 whole entry partner): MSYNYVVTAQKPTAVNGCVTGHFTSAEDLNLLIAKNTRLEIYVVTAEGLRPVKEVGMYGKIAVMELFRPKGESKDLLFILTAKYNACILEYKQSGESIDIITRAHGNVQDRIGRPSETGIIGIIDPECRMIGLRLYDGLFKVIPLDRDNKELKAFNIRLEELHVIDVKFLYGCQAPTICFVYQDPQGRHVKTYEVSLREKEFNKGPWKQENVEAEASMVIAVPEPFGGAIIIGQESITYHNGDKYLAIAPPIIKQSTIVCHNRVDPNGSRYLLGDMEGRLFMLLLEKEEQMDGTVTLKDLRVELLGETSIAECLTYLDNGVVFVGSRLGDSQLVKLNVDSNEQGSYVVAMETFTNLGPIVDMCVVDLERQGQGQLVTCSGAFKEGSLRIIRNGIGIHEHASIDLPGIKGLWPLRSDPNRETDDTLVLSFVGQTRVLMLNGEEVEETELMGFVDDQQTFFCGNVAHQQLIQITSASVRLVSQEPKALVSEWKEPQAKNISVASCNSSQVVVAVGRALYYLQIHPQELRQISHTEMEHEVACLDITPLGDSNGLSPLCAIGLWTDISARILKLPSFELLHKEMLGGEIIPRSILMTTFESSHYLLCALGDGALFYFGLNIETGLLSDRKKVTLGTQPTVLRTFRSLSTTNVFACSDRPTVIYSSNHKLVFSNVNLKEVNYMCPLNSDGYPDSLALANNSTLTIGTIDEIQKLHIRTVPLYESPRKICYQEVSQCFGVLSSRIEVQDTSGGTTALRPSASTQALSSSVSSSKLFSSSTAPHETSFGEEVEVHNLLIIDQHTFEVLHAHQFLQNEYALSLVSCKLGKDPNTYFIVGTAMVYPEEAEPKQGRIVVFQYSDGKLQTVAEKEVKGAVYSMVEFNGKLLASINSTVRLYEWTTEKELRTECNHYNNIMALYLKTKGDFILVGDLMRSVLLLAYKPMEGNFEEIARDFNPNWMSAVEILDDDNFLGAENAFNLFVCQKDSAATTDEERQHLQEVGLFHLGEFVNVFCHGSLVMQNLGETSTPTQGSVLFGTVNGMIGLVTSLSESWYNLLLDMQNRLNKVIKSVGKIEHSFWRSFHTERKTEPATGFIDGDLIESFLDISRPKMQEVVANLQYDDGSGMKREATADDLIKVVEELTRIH
T2 sequence (Q13422 whole entry): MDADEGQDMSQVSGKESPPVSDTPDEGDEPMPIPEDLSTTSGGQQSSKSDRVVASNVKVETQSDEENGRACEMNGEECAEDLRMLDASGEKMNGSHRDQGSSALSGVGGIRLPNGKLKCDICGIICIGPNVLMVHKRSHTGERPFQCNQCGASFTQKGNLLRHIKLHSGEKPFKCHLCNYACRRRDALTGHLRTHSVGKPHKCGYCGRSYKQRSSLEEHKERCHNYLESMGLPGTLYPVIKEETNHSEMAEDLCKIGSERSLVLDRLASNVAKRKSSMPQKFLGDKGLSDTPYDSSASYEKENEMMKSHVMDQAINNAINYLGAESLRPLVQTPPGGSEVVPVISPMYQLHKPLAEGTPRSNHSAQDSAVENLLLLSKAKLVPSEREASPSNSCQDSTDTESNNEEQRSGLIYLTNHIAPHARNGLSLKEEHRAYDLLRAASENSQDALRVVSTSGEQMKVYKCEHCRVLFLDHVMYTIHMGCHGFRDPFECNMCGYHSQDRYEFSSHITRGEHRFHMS
T2 sequence (Q96SW2 whole entry): as the sequence (Q96SW2 whole entry) above
T2 sequence (Q16531 whole entry partner): as the sequence (Q16531 whole entry partner) above
T6 sequence (P15170 whole entry): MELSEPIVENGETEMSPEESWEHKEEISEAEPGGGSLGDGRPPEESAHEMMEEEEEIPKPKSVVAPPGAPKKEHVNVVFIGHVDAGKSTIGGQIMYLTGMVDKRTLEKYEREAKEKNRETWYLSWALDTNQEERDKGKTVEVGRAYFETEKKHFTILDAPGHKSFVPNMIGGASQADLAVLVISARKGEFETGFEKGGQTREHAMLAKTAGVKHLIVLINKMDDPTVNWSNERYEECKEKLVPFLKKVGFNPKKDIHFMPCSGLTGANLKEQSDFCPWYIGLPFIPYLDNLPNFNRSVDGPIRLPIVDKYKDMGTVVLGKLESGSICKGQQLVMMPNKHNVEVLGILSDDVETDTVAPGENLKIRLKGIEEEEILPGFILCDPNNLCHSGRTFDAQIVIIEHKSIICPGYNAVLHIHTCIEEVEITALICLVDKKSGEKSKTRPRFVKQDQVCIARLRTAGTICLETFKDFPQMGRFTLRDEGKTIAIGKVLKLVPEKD
T6 sequence (Q96SW2 whole entry): as the sequence (Q96SW2 whole entry) above
T6 sequence (Q16531 whole entry partner): as the sequence (Q16531 whole entry partner) above
T1 sequence (P30291 whole entry): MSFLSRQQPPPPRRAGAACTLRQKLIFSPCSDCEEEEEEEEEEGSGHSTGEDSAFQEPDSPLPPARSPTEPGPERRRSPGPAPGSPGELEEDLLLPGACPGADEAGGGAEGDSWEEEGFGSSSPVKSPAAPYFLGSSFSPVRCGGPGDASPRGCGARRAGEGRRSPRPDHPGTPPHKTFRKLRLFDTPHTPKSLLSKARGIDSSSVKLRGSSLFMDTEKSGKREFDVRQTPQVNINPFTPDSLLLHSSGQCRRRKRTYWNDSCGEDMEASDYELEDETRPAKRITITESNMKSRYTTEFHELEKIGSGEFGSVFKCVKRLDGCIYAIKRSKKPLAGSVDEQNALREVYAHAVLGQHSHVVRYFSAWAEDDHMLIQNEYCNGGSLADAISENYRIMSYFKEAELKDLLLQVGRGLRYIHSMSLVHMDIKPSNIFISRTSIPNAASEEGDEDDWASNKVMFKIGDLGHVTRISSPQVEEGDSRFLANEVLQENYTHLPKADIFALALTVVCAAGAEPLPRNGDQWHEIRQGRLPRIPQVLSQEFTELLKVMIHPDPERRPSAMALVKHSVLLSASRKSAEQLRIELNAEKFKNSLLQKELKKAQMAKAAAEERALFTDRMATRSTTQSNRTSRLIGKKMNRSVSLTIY
T1 sequence (Q96SW2 whole entry): as the sequence (Q96SW2 whole entry) above
T1 sequence (Q16531 whole entry partner): as the sequence (Q16531 whole entry partner) above
T5 sequence (P48729 whole entry): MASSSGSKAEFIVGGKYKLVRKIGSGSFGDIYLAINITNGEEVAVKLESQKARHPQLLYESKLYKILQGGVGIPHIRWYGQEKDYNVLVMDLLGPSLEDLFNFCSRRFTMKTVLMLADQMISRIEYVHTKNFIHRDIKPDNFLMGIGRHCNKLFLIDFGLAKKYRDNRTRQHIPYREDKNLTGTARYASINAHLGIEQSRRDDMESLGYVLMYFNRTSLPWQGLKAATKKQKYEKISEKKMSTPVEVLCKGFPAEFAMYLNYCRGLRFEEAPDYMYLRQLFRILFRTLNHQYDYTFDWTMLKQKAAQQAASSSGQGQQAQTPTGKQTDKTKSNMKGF
T5 sequence (Q96SW2 whole entry): as the sequence (Q96SW2 whole entry) above
T5 sequence (Q16531 whole entry partner): as the sequence (Q16531 whole entry partner) above

SMILES	WEE1 substrate protein remaining % [1]	IKZF1 substrate protein remaining % [2]	IKZF2 substrate protein remaining % [3]	IKZF3 substrate protein remaining % [4]	CK1α substrate protein remaining % [5]	GSPT1 substrate protein remaining % [6]
O=C1CCN(N2Cc3cc(CN4CCC(c5cccc6c(F)cccc56)CC4)ccc3C2=O)C(=O)N1 [GT-07589, 1-(5-((4-(5-fluoronaphthalen-1-yl)piperidin-1-yl)methyl)-1-oxoisoindolin-2-yl)dihydropyrimidine-2,4(1H,3H)-dione]	B (80%< substrate protein remaining % ≤100%)	B (80%< substrate protein remaining % ≤100%)	B (80%< substrate protein remaining % ≤100%)	B (80%< substrate protein remaining % ≤100%)	B (80%< substrate protein remaining % ≤100%)	A (0% ≤ substrate protein remaining % ≤80%)
O=C1CCN(N2Cc3cc(CN4CCC(c5noc6ccccc56)CC4)ccc3C2=O)C(=O)N1 [GT-07642, 1-(5-((4-(benzo[d]isoxazol-3-yl)piperidin-1-yl)methyl)-1-oxoisoindolin-2-yl)dihydropyrimidine-2,4(1H,3H)-dione]	B (80%< substrate protein remaining % ≤100%)	B (80%< substrate protein remaining % ≤100%)	B (80%< substrate protein remaining % ≤100%)	B (80%< substrate protein remaining % ≤100%)	B (80%< substrate protein remaining % ≤100%)	A (0% ≤ substrate protein remaining % ≤80%)
O=C1CCN(N2C(=O)c3ccc(CN4CC=C(c5n[nH]c6cc(F)ccc56)CC4)cc3C2=O)C(=O)N1 [GT-07643, 2-(2,4-dioxotetrahydropyrimidin-1(2H)-yl)-5-((4-(6-fluoro-1H-indazol-3-yl)-3,6-dihydropyridin-1(2H)-yl)methyl)isoindoline-1,3-dione]	B (80%< substrate protein remaining % ≤100%)	B (80%< substrate protein remaining % ≤100%)	B (80%< substrate protein remaining % ≤100%)	B (80%< substrate protein remaining % ≤100%)	B (80%< substrate protein remaining % ≤100%)	A (0% ≤ substrate protein remaining % ≤80%)
O=C1CCN(N2Cc3cc(CN4CCC(c5cccc6cnccc56)CC4)ccc3C2=O)C(=O)N1 [GT-07644, 1-(5-((4-(isoquinolin-5-yl)piperidin-1-yl)methyl)-1-oxoisoindolin-2-yl)dihydropyrimidine-2,4(1H,3H)-dione]	B (80%< substrate protein remaining % ≤100%)	B (80%< substrate protein remaining % ≤100%)	B (80%< substrate protein remaining % ≤100%)	B (80%< substrate protein remaining % ≤100%)	B (80%< substrate protein remaining % ≤100%)	A (0% ≤ substrate protein remaining % ≤80%)
O=C1CCN(N2Cc3cc(CN4CCC(c5ccnc6cc(F)ccc56)CC4)ccc3C2=O)C(=O)N1 [GT-07645, 1-(5-((4-(7-fluoroquinolin-4-yl)piperidin-1-yl)methyl)-1-oxoisoindolin-2-yl)dihydropyrimidine-2,4(1H,3H)-dione]	B (80%< substrate protein remaining % ≤100%)	A (0% ≤ substrate protein remaining % ≤80%)	B (80%< substrate protein remaining % ≤100%)	B (80%< substrate protein remaining % ≤100%)	B (80%< substrate protein remaining % ≤100%)	A (0% ≤ substrate protein remaining % ≤80%)
